# From the supplement of paper PMC10307832
# Experiments:
# Experiment in all cases: relative viability (nuclei count vs DMSO), 5 days (fraction); higher = more cells survive
# Irinotecan + Navitoclax = compound: CCc1c2c(nc3ccc(OC(=O)N4CCC(N5CCCCC5)CC4)cc13)-c1cc3c(c(=O)n1C2)COC(=O)[C@]3(O)CC [Irinotecan] + CC1(C)CCC(c2ccc(Cl)cc2)=C(CN2CCN(c3ccc(C(=O)NS(=O)(=O)c4ccc(N[C@H](CCN5CCOCC5)CSc5ccccc5)c(S(=O)(=O)C(F)(F)F)c4)cc3)CC2)C1 [Navitoclax] (partner 0.5 µM)
# Procedure, shortened: (§1)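 Dosing by pin tool came one day after lung cancer cell lines were seeded in 1536-well plates, using either one drug or a fixed anchor-drug dose plus five library-drug doses (not always all listed) in √10 steps. After 5 days, nuclei were counted on 4× images. Relative viability is treated-well nuclei count divided by vehicle-well nuclei count, and values are medians of duplicate plates.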
# Irinotecan + Alpelisib = compound: CCc1c2c(nc3ccc(OC(=O)N4CCC(N5CCCCC5)CC4)cc13)-c1cc3c(c(=O)n1C2)COC(=O)[C@]3(O)CC [Irinotecan] + Cc1nc(NC(=O)N2CCC[C@H]2C(N)=O)sc1-c1ccnc(C(C)(C)C(F)(F)F)c1 [Alpelisib] (partner 2 µM)
# Procedure, shortened: as §1
# RU-SKI 43 + Foretinib = compound: CC[C@@H](C)CNCC(=O)N1CCC2=C([C@@H]1COC3=CC=CC(=C3)C)C=CS2 [RU-SKI 43] + COc1cc2c(Oc3ccc(NC(=O)C4(C(=O)Nc5ccc(F)cc5)CC4)cc3F)ccnc2cc1OCCCN1CCOCC1 [Foretinib] (partner 0.25 µM)
# Procedure, shortened: as §1
# MK-8033 + Trametinib = compound: Cn1cc(-c2cnc3ccc4ccc(CS(=O)(=O)NCc5ccccn5)cc4c(=O)c3c2)cn1 [MK-8033] + CC(=O)Nc1cccc(-n2c(=O)n(C3CC3)c(=O)c3c(Nc4ccc(I)cc4F)n(C)c(=O)c(C)c32)c1 [Trametinib] (partner 0.02 µM)
# Procedure, shortened: as §1
Cell Line,relative viability (Irinotecan + Navitoclax; first compound 2 µM),relative viability (Irinotecan + Navitoclax; first compound 6.325 µM),relative viability (Irinotecan + Navitoclax; first compound 20 µM),relative viability (Irinotecan + Alpelisib; first compound 2 µM),relative viability (Irinotecan + Alpelisib; first compound 6.325 µM),relative viability (Irinotecan + Alpelisib; first compound 20 µM),relative viability (RU-SKI 43 + Foretinib; first compound 0.1 µM),relative viability (RU-SKI 43 + Foretinib; first compound 0.3162 µM),relative viability (RU-SKI 43 + Foretinib; first compound 1 µM),relative viability (RU-SKI 43 + Foretinib; first compound 3.162 µM),relative viability (RU-SKI 43 + Foretinib; first compound 10 µM),relative viability (MK-8033 + Trametinib; first compound 0.02 µM),relative viability (MK-8033 + Trametinib; first compound 0.06325 µM),relative viability (MK-8033 + Trametinib; first compound 0.2 µM),relative viability (MK-8033 + Trametinib; first compound 0.6325 µM),relative viability (MK-8033 + Trametinib; first compound 2 µM),relative viability (Irinotecan + Navitoclax; first compound 0.6325 µM),relative viability (Irinotecan + Alpelisib; first compound 0.6325 µM)
201T,1.12,0.729,0.451,0.87,0.465,0.331,1.04,1.11,1.12,1.07,1.01,0.778,0.76,0.709,0.782,0.73,–,–
A549,0.639,0.118,0.0499,0.642,0.207,0.0613,1.12,1.1,1.06,0.93,0.852,–,–,–,–,–,0.997,0.776
A-427,0.222,0.215,0.172,0.19,0.176,0.185,1.14,1.03,1.13,1.11,0.969,0.775,0.719,0.696,0.752,0.781,–,–
ABC-1,–,–,–,0.654,0.439,0.362,1.04,1.05,1.04,1.06,0.754,–,–,–,–,–,–,–
BEN,0.0844,0.0937,0.248,0.771,0.319,0.372,0.789,0.548,0.992,0.53,0.705,1.07,0.943,0.964,1.03,0.991,0.0453,1.11
CAL-12T,1.43,0.491,0.38,1.19,0.422,0.309,1.05,1.31,1.09,1.18,1.06,0.347,0.297,0.31,0.413,0.329,1.32,1.08
COR-L23,0.261,0.154,0.115,0.238,0.158,0.119,0.914,1.19,1.24,1.04,0.842,0.607,0.576,0.602,0.572,0.523,0.413,0.324
COR-L 105,0.766,0.529,0.463,1.18,0.648,0.444,0.995,0.903,1.18,1.04,0.736,0.514,0.392,0.427,0.434,0.356,0.721,1.08
Calu-6,0.431,0.212,0.0896,0.543,0.291,0.119,0.958,0.976,0.973,0.859,0.724,–,–,–,–,–,0.78,0.826
ChaGo-K-1,0.784,0.407,0.33,–,–,–,0.854,1.07,0.98,0.862,0.818,0.877,0.717,0.802,0.886,0.729,–,–
EBC-1,0.406,0.378,0.133,0.387,0.385,0.161,0.103,0.0955,0.101,0.0987,0.109,–,–,–,–,–,0.304,0.621
EKVX,0.74,0.344,0.157,0.766,0.33,0.205,0.735,0.712,0.876,0.719,0.499,0.334,0.297,0.295,0.367,0.344,0.924,1.03
EMC-BAC-2,0.36,0.202,0.226,0.28,0.165,0.181,1.01,0.998,1.04,1.01,0.986,0.804,0.776,0.826,0.928,0.902,0.705,0.483
EPLC-272H,0.17,0.144,0.209,0.203,0.183,0.267,0.717,0.677,0.745,0.744,0.592,0.247,0.263,0.29,0.275,0.301,0.658,0.44
H3255,0.279,0.158,0.227,0.409,0.321,0.272,0.914,0.83,0.817,0.708,0.841,0.598,–,0.562,0.656,0.532,0.352,0.665
HARA,0.106,0.123,0.111,0.211,0.215,0.177,1.06,1.25,1.01,1.25,1.13,0.509,0.525,0.825,0.423,0.689,0.658,0.557
HCC-15,0.209,0.147,0.167,0.239,0.144,0.173,1.1,1.17,1.16,1.11,1.04,0.387,0.369,0.322,0.351,0.368,0.5,0.478
HCC-44,0.232,0.231,0.27,0.347,0.28,0.313,–,–,–,–,–,1.01,1.04,1.04,1.02,1.04,0.904,0.669
HCC-78,0.525,0.202,0.191,0.248,0.195,0.211,0.541,0.6,0.592,0.591,0.479,0.611,0.614,0.739,0.325,0.578,0.75,0.38
HCC-366,0.158,0.0415,0.0387,0.187,0.0425,0.0448,0.975,1.01,0.994,1.04,0.811,0.43,0.346,0.314,0.279,0.362,0.79,0.404
HCC-827,0.278,0.244,0.237,0.252,0.203,0.233,1.01,1.11,1.11,1.07,1.01,0.578,–,0.534,0.547,0.605,0.591,0.522

Cell Line,relative viability (Irinotecan + Navitoclax; first compound 2 µM),relative viability (Irinotecan + Navitoclax; first compound 6.325 µM),relative viability (Irinotecan + Navitoclax; first compound 20 µM),relative viability (Irinotecan + Alpelisib; first compound 2 µM),relative viability (Irinotecan + Alpelisib; first compound 6.325 µM),relative viability (Irinotecan + Alpelisib; first compound 20 µM),relative viability (RU-SKI 43 + Foretinib; first compound 0.1 µM),relative viability (RU-SKI 43 + Foretinib; first compound 0.3162 µM),relative viability (RU-SKI 43 + Foretinib; first compound 1 µM),relative viability (RU-SKI 43 + Foretinib; first compound 3.162 µM),relative viability (RU-SKI 43 + Foretinib; first compound 10 µM),relative viability (MK-8033 + Trametinib; first compound 0.02 µM),relative viability (MK-8033 + Trametinib; first compound 0.06325 µM),relative viability (MK-8033 + Trametinib; first compound 0.2 µM),relative viability (MK-8033 + Trametinib; first compound 0.6325 µM),relative viability (MK-8033 + Trametinib; first compound 2 µM),relative viability (Irinotecan + Navitoclax; first compound 0.6325 µM),relative viability (Irinotecan + Alpelisib; first compound 0.6325 µM)
HOP-62,0.598,0.176,0.177,0.171,0.158,0.129,1.1,1.2,1.15,1.24,1.13,0.315,0.381,0.344,0.371,0.35,0.624,0.244
IA-LM,0.246,0.15,0.0454,0.408,0.189,0.0631,1.25,1.28,1.49,1.18,1.13,–,–,–,–,–,0.574,0.614
LC-2-ad,0.282,0.169,0.167,0.283,0.155,0.17,0.929,0.922,0.908,1.02,0.838,0.895,0.888,0.885,0.916,0.898,0.287,0.634
LCLC-97TM1,0.256,0.218,0.163,0.165,0.154,0.224,0.945,0.938,1.05,1,1.04,0.181,0.19,–,0.207,0.209,0.254,0.105
LCLC-103H,–,–,–,0.345,0.33,0.368,0.759,0.896,0.91,0.843,0.783,0.637,0.705,0.673,0.672,0.696,–,0.812
LK-2,0.754,0.406,0.255,1.4,0.487,0.259,1.28,1.13,1.27,1.46,1.05,0.668,0.687,0.688,0.849,0.766,0.858,1.17
LOU-NH91,0.526,0.32,0.275,0.596,0.422,0.301,0.953,0.912,0.914,1.01,0.897,0.761,0.73,0.756,0.789,0.792,0.578,0.663
LU99A,0.231,0.195,0.242,0.23,0.225,0.219,0.86,0.99,0.815,0.742,0.731,0.582,0.48,0.492,0.582,0.503,0.188,0.219
NCI-H358,–,–,–,0.561,0.311,0.248,0.631,0.749,0.829,0.776,0.489,0.141,0.124,0.11,0.146,0.131,–,0.628
NCI-H522,–,–,–,–,–,–,–,–,–,–,–,0.72,0.701,0.669,0.657,0.766,–,–
NCI-H650,–,–,–,0.432,0.229,0.323,1.05,1.02,1.1,1.09,1.08,1.06,1.02,0.973,0.939,0.884,–,0.889
NCI-H661,–,–,–,0.538,0.277,0.269,1.01,1.29,1,1.09,0.894,0.544,0.498,0.577,0.57,0.515,–,0.798
NCI-H1299,0.845,0.431,0.303,0.918,0.801,0.36,1.08,1.1,1.14,1.12,1.09,–,–,–,–,–,0.886,0.919
NCI-H1563,–,–,–,0.912,0.875,0.654,0.918,0.985,0.957,0.855,0.755,–,–,–,–,–,–,0.86
NCI-H1623,–,–,–,–,–,–,0.802,0.871,0.922,0.826,0.711,–,–,–,–,–,–,–
NCI-H1648,–,–,–,–,–,–,–,–,–,–,–,0.499,–,0.408,0.499,0.432,–,–
NCI-H1650,0.808,0.394,0.316,–,–,–,1.05,1.22,1.24,1.02,0.887,0.568,0.637,0.53,0.625,0.54,1.07,–
NCI-H1703,1.45,0.514,0.105,0.482,0.385,0.136,0.388,0.33,0.297,0.337,0.295,–,–,–,–,–,1.16,0.305
NCI-H1792,0.72,0.162,0.095,0.673,0.329,0.11,–,–,–,–,–,0.536,0.33,0.352,0.437,0.36,0.598,0.711
NCI-H2342,–,–,–,–,–,–,0.967,1.09,1.01,1.06,1.02,0.83,0.773,0.827,0.999,0.83,–,–
SW 900,–,–,–,–,–,–,0.807,0.873,1.22,0.864,0.77,0.762,0.583,0.612,0.936,0.848,–,–
